# Experiments:
# [1] = test system: bicistronic HCV replicon (replicon RNA, GenBank Accession No. AJ242654); test: HCV Replicon Assay; assay type: cell-based; details: Hepatitis C virus, 72 h, read-out: Replicon IC50
SMILES,melting point [°C],IC50 [1] [nM]
"N#Cc1c(-c2ncc(S(=O)(=O)NC(CF)CF)cn2)n(-c2ccccc2)c2cc(OC(F)F)ccc12 [compound 610, 2-[3-cyano-6-(difluoromethoxy)-1-phenyl-1H-indol-2-yl]-N-(1,3-difluoropropan-2-yl)pyrimidine-5-sulfonamide]",206 to 208,< 500
"Cc1cc2c(cc1F)c(C#N)c(-c1ccc(S(=O)(=O)N[C@@H](C)C(F)(F)F)cn1)n2-c1ccoc1 [compound 991, 6-[3-cyano-5-fluoro-1-(furan-3-yl)-6-methyl-1H-indol-2-yl]-N-[(2S)-1,1,1-trifluoropropan-2-yl]pyridine-3-sulfonamide]",215 to 219,< 500
"CC(C)(C)S(=O)(=O)Nc1ccc(-c2c(C#N)c3ccc(OC(F)F)cc3n2CC2CC2)cn1 [compound 269, N-{5-[3-cyano-1-(cyclopropylmethyl)-6-(difluoromethoxy)-1H-indol-2-yl]pyridin-2-yl}-2-methylpropane-2-sulfonamide]",214 to 215,500 to 2000
"CCc1cc2c(cc1F)c(C#N)c(-c1ccc(S(=O)(=O)NC(C)(C)C(F)(F)F)cn1)n2C1CCCC1 [compound 672, 6-(3-cyano-1-cyclopentyl-6-ethyl-5-fluoro-1H-indol-2-yl)-N-(1,1,1-trifluoro-2-methylpropan-2-yl)pyridine-3-sulfonamide]",142 to 143,< 500
"CNC(=O)c1c(-c2ncc(S(=O)(=O)NC(C)(C)C)cn2)n(C2CCC2)c2cc(C)c(F)cc12 [compound 802, 2-[5-(tert-butylsulfamoyl)pyrimidin-2-yl]-1-cyclobutyl-5-fluoro-N,6-dimethyl-1H-indole-3-carboxamide]",211 to 213,< 500
"N#Cc1c(-c2ccc(S(=O)(=O)NC3(C(F)(F)F)CC3)cn2)n(C2CCCC2)c2cc(OC(F)F)ccc12 [compound 94, 6-[3-cyano-1-cyclopentyl-6-(difluoromethoxy)-1H-indol-2-yl]-N-[1-(trifluoromethyl)cyclopropyl]pyridine-3-sulfonamide]",186 to 193,< 500
"Cc1ccc2c(c1)c(C#N)c(-c1ccc(S(=O)(=O)NC(C)(C)C(F)(F)F)cn1)n2C1CCC1 [compound 480, 6-(3-cyano-1-cyclobutyl-5-methyl-1H-indol-2-yl)-N-(1,1,1-trifluoro-2-methylpropan-2-yl)pyridine-3-sulfonamide]",182 to 187,< 500
"Cc1cc(F)c2c(C#N)c(-c3ccc(S(=O)(=O)NC4(C(F)(F)F)CC4)cn3)n(C3CCC3)c2c1 [compound 629, 6-(3-cyano-1-cyclobutyl-4-fluoro-6-methyl-1H-indol-2-yl)-N-[1-(trifluoromethyl)cyclopropyl]pyridine-3-sulfonamide]",241 to 246,2000 to 5000
"Cc1cc(-n2c(-c3ccc(S(=O)(=O)N[C@@H](C)C(F)(F)F)cn3)c(C#N)c3cc(F)c(C)cc32)cs1 [compound 1058, 6-[3-cyano-5-fluoro-6-methyl-1-(5-methylthiophen-3-yl)-1H-indol-2-yl]-N-[(2S)-1,1,1-trifluoropropan-2-yl]pyridine-3-sulfonamide]",210.5 to 215.2,< 500
"CC(C)NS(=O)(=O)c1ccc(-c2c(C#N)c3ccc(OC(F)(F)F)cc3n2CC2CC2)nc1 [compound 11, 6-[3-cyano-1-(cyclopropylmethyl)-6-(trifluoromethoxy)-1H-indol-2-yl]-N-(propan-2-yl)pyridine-3-sulfonamide]",203 to 205,500 to 2000
"Cc1ccc2c(C#N)c(-c3ccc(S(=O)(=O)N[C@@H](C)C(F)(F)F)cn3)n(-c3ncccn3)c2c1 [compound 677, 6-[3-cyano-6-methyl-1-(pyrimidin-2-yl)-1H-indol-2-yl]-N-[(2S)-1,1,1-trifluoropropan-2-yl]pyridine-3-sulfonamide]",195 to 198,< 500
"CC(C)NS(=O)(=O)c1cnc(-c2c(C#N)c3ccc(Cl)cc3n2C2CCC2)nc1 [compound 115, 2-(6-chloro-3-cyano-1-cyclobutyl-1H-indol-2-yl)-N-(propan-2-yl)pyrimidine-5-sulfonamide]",228 to 229,< 500
"CCc1cc2c(cc1F)c(C#N)c(-c1ccc(S(=O)(=O)N[C@@H](C)C(F)(F)F)cn1)n2-c1ccc(OC)cc1 [compound 1005, 6-[3-cyano-6-ethyl-5-fluoro-1-(4-methoxyphenyl)-1H-indol-2-yl]-N-[(2S)-1,1,1-trifluoropropan-2-yl]pyridine-3-sulfonamide]",261 to 266,< 500
"Cc1ccc2c(c1)c(C#N)c(-c1ncc(S(=O)(=O)NC(C)C)cn1)n2C1CCC1 [compound 121, 2-(3-cyano-1-cyclobutyl-5-methyl-1H-indol-2-yl)-N-(propan-2-yl)pyrimidine-5-sulfonamide]",134 to 138,< 500
"CC(C)Oc1ccc2c(C#N)c(-c3ccc(NS(=O)(=O)C(C)C)cn3)n(CC3CC3)c2c1 [compound 281, N-{6-[3-cyano-1-(cyclopropylmethyl)-6-(propan-2-yloxy)-1H-indol-2-yl]pyridin-3-yl}propane-2-sulfonamide]",168 to 172,500 to 2000
"Cc1cc2c(cc1F)c(C#N)c(-c1ccc(S(=O)(=O)N[C@@H](C)C(F)(F)F)cn1)n2-c1ccc(C#N)s1 [compound 1033, 6-[3-cyano-1-(5-cyanothiophen-2-yl)-5-fluoro-6-methyl-1H-indol-2-yl]-N-[(2S)-1,1,1-trifluoropropan-2-yl]pyridine-3-sulfonamide]",182 to 184.6,< 500
"CCc1cc2c(cc1F)c(C#N)c(-c1ccc(S(=O)(=O)N[C@@H](C)C(F)(F)F)cn1)n2-c1ccc(F)cn1 [compound 777, 6-[3-cyano-6-ethyl-5-fluoro-1-(5-fluoropyridin-2-yl)-1H-indol-2-yl]-N-[(2S)-1,1,1-trifluoropropan-2-yl]pyridine-3-sulfonamide]",210 to 212,< 500
"C[C@H](NS(=O)(=O)c1cnc(-c2c(C#N)c3ccc(CC(F)F)cc3n2C2CCC2)nc1)C1CC1 [compound 592, 2-[3-cyano-1-cyclobutyl-6-(2,2-difluoroethyl)-1H-indol-2-yl]-N-[(1S)-1-cyclopropylethyl]pyrimidine-5-sulfonamide]",168 to 175,< 500
"CCc1cc2c(cc1F)c(C#N)c(-c1ccc(S(=O)(=O)NC(C)(C)C)cn1)n2-c1cnccn1 [compound 899, N-tert-butyl-6-[3-cyano-6-ethyl-5-fluoro-1-(pyrazin-2-yl)-1H-indol-2-yl]pyridine-3-sulfonamide]",196 to 201,< 500
"N#Cc1c(-c2ccc(S(=O)(=O)NC(CF)CF)cn2)n(CC2CC2)c2cc(F)ccc12 [compound 57, 6-[3-cyano-1-(cyclopropylmethyl)-6-fluoro-1H-indol-2-yl]-N-(1,3-difluoropropan-2-yl)pyridine-3-sulfonamide]",188 to 190,< 500
"CC(C)NS(=O)(=O)c1cnc(-c2c(C#N)c3cc(F)ccc3n2C2CCCC2)nc1 [compound 603, 2-(3-cyano-1-cyclopentyl-5-fluoro-1H-indol-2-yl)-N-(propan-2-yl)pyrimidine-5-sulfonamide]",217 to 222,< 500

# Reference: patent publication US8735414B2 (priority 2009, dated 2014)
